According to patent US20120214802A1, “PYRROLIDINE COMPOUNDS WHICH INHIBIT BETA-SECRETASE ACTIVITY AND METHODS OF USE THEREOF” (priority 2009, published 2012):
Like-named read-outs stand apart in the source and are kept apart here.

Legend:
memapsin 2 [1] = molecular target: memapsin 2 (Homo sapiens, UniProt P56817); assay: Inhibition of memapsin 2 beta-secretase activity (fluorogenic substrate FS-2); assay type: biochemical; conditions: pH 4, 37° C., read-out: M2 Ki
Method in brief: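 Memapsin 2 pre-incubated with compound for 20 min at pH 4, 37° C. Reaction started with fluorogenic substrate FS-2, […], derived from Swedish-variant APP beta-secretase site; inhibition measured from fluorescence.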

memapsin 2 [2] = molecular target: T1, memapsin 2 (Cricetulus griseus, UniProt G3IAK4); assay: Cellular Aβ IC50 determination (Aβ40 sandwich ELISA); assay type: cell-based, Chinese hamster; conditions: CHO cells over-expressing human APP695 with London and Swedish mutations, 24 h, read-out: M2 IC50
T1 construct: endogenous in cells; host or cells: Chinese hamster ovary cells over-expressing human APP695 (London + Swedish)
Method in brief: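 CHO cells overexpressing human APP695 (London and Swedish mutations) treated 48 h post-seeding with serially diluted compounds (top near 4 μM, 0.4% DMSO), 24 h at 37° C, 5% CO2. Medium Aβ40 measured by sandwich ELISA; levels relative to control fitted to 4-parameter IC50 model.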

CYP3A4 = molecular target: T2, CYP3A4 (Homo sapiens, UniProt P08684); assay: CYP3A4 inhibition (midazolam metabolism in human liver microsomes); assay type: in vitro ADME; conditions: substrate midazolam
T2 construct: host or cells: human liver microsomes
Method: To evaluate the drug-drug interaction potential for compounds, the potency to inhibit the major metabolic cytochrome CYP450 isoform 3A4 was assessed. The inhibition constant Ki was determined for inhibition of the metabolism of midazolam, a CYP3A4 substrate.
CYP3A4 Ki assays were performed following a recently published protocol with slight modifications (Di, L., Kerns, E. H., Li, S. Q., and Carter, G. T. (2007) Comparison of cytochrome P450 inhibition assays for drug discovery using human liver microsomes with LC-MS, rhCYP450 isozymes with fluorescence, and double cocktail with LC-MS. International Journal of Pharmaceutics 335: 1-11). The P450 inhibition assay was performed in 96-well plates at 37.2° C. in a shaking incubator. The compounds were diluted from 5 mM stocks in 100% DMSO and incubated at seven final concentrations from 0.078 to 10 μM (0.1% DMSO in each final incubation), with human liver microsomes (HLM) at a final protein concentration of 0.1 mg/mL protein and a substrate concentration ranging from 1.25 to 10 μM.
The assay was standardized for both phosphate buffer (100 mM, pH 7.4) and the NADPH regenerating system (MgCl2, 3.3 mM; G6P, 3.3 mM; G6PD, 1 U/ml; NADP+, 1.3 mM). Eight replicate control samples (0.1% DMSO, no compound) were prepared. Assays (200 μL) were set up by mixing HLM+substrate stock, 10 μL of test article in 2% DMSO, and the substrate before initiating the reaction with the addition of the regenerating system mixture. Reactions were quenched following incubation for 20, 30 and 40 minutes as described following.
After incubation for the specified time in a humidified shaking incubator, 20 μL of the reaction mixture was removed and the reactions were terminated by adding 200 μL of cold acetonitrile. Samples were centrifuged at 1000×g for 15 minutes in Solvinert filter plate. The receptor plate was dried via speed vacuum at 40° C. The sample was reconstituted with a reconstitution buffer composed of 10% acetonitrile, 10% DMSO, 80% H2O with an internal standard added at a concentration of 100 ng/ml. MS-Analysis was completed using LC-MS/MS. Formation of 1′-hydroxymidazolam was measured by monitoring a specific SRM (342>203) transition for the CYP3A4 metabolite.
Data were expressed as the relative quantity of midazolam metabolite relative to control incubations. Initial velocities were obtained by multiplying the relative quantity by the initial substrate concentration and dividing by the incubation duration. Data were transformed to inverse of inivital velocity and expressed vs. inhibitor concentration [I] for determination of Ki by the Dixon method (Dixon, M. (1953) Biochemical Journal 55: 170-171) using where intercept [I]=−Ki was determined at multiple substrate concentrations.

[3] = Hepatic intrinsic clearance in liver microsomes; assay type: in vitro ADME; conditions: human, pH 7.4, human liver microsomes
Method: To 500 μl of 200 mM Na^+K^+phosphate buffer (pH 7.4), 100 μl of 1 mM EDTA solution was added followed by 100 μl of 2 mg protein/ml human liver microsomes. A 10 μl aliquot of test compound (20 mM stock in 50% acetonitrile) was diluted further with 40 μl of H2O (total assay volume […]. Assay mixture is incubated for 5 minutes at 37° C. The assay was initiated by addition of 250 μl of 4 mM NADPH solution. Incubation was continued at 37° C. Separate reaction mixtures were prepared for 0, 5, 10, 20, and 30 min durations. Individual reactions were halted by addition of 150 μl of 100% acetonitrile. Internal standard (10 μl of 100 ng/ml diazepam solution) was added. Concentration of the test compound in each separate reaction was measured using LC/MS/MS and a standard curve for the test compound according to standard procedures.
The hepatic intrinsic clearance in liver microsome was determined by the following procedure described by Davies and Morris (Davies, B. and Morris, T. (19930) Physiological parameters in laboratory animals and humans. Pharm Res. 10:1093-1095) detailing the relationship of in vitro clearance to physiological parameters in animals and human subjects.
The amount of compound remaining at each time point was expressed relative to the amount present in the initial (0 min) incubation. The relationship of relative amount vs. time was used to determine the half life of the compound in the microsome assay. The concentration independent rate constant, k1, was determined from rectangular hyperbolic fit:
where T is time (in minutes), from the relationship of relative amount vs. time. Alternatively, k1 was determined from a transform of the equation, where
Conversion to in vivo clearance was obtained from the relation (Davies and Morris, 1993):
where v=velocity of metabolism, [S] is the concentration of the compound, and volumes are expressed in mL.

[4] = in vitro clearance, read-out: HLM CL

T2 sequence (P08684 whole entry): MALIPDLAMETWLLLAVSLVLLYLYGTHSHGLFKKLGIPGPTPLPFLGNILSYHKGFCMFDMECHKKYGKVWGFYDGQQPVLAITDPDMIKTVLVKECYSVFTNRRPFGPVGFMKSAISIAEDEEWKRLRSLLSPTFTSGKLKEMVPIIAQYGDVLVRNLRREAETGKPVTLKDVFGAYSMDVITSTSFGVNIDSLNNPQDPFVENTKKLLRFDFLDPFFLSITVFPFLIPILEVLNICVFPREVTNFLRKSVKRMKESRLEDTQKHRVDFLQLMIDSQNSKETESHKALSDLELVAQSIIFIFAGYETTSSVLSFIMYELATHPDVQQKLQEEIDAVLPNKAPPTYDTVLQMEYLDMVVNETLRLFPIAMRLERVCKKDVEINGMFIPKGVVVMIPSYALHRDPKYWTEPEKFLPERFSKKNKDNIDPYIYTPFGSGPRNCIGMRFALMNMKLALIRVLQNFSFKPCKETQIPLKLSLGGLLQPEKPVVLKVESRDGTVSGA
Chain of memapsin 2 (Homo sapiens, UniProt P56817) (P56817 46-501): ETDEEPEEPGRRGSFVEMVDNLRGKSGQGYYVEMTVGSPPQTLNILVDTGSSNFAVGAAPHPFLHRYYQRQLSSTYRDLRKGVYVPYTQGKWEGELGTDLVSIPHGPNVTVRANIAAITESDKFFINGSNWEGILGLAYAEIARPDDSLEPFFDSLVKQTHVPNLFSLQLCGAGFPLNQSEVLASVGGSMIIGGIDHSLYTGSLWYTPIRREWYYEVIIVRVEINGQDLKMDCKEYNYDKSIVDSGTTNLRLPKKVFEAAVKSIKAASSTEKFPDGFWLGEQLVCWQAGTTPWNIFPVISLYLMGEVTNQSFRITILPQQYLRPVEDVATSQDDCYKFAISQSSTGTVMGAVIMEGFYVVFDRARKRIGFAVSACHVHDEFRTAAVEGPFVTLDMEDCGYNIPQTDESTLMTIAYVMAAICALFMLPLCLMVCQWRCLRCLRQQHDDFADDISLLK
T1 sequence (G3IAK4 22-501): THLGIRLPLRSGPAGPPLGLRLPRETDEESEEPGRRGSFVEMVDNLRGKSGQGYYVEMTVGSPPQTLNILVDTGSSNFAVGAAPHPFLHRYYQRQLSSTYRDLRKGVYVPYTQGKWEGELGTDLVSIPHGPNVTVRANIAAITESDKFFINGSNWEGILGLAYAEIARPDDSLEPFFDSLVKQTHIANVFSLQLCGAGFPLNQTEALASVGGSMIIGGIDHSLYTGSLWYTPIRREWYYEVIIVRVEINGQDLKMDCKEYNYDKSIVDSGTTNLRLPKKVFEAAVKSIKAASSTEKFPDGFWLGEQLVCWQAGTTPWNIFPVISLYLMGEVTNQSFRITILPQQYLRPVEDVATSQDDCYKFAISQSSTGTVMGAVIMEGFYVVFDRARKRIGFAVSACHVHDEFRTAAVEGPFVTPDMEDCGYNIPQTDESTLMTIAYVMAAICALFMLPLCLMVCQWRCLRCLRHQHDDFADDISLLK

| SMILES | Ki (memapsin 2 [1]) [nM] | IC50 (memapsin 2 [2]) [nM] | Ki (CYP3A4; read-out: CYP 3A4Ki) [nM] | CLint scaled at 200 μM [3, 4] [mL/min/kg] | Ki (CYP3A4) [nM] | CLint scaled at 200 μM ([3]; read-out: hepatic intrinsic clearance in liver microsomes (HLMCL)) [mL/min/kg] |
| --- | --- | --- | --- | --- | --- | --- |
| Cc1csc(CN(C)C(=O)c2cccc(C(=O)N[C@@H](Cc3cc(F)cc(F)c3)[C@H](O)[C@H]3CCCN3)c2)n1 [1-41, N1-((1R,2S)-3-(3,5-difluorophenyl)-1-hydroxy-1-((R)-pyrrolidin-2-yl)propan-2-yl)-N3-methyl-N3-((4-methylthiazol-2-yl)methyl)isophthalamide] | < 250 | > 1000 | > 10000 | < 400 |  |  |
| Cc1csc([C@H]2CCCN2C(=O)c2cc(C(=O)N[C@@H](Cc3ccccc3)[C@H](O)CNCc3cncc(C(C)C)c3)cc(-c3ccco3)c2)n1 [2-2, 3-(furan-2-yl)-N-((2S,3R)-3-hydroxy-4-((5-isopropylpyridin-3-yl)methylamino)-1-phenylbutan-2-yl)-5-((R)-2-(4-methylthiazol-2-yl)pyrrolidine-1-carbonyl)benzamide, reference compound] | < 250 | < 500 | < 1000 | > 700 |  |  |
| Cc1cc(C(=O)N[C@@H](Cc2ccccc2)[C@H](O)CNCc2cncc(C(C)(C)C)c2)cc(C(=O)N2CCC[C@@H]2c2nc(C)co2)c1 [2-3, N-((2S,3R)-4-((5-tert-butylpyridin-3-yl)methylamino)-3-hydroxy-1-phenylbutan-2-yl)-3-methyl-5-((R)-2-(4-methyloxazol-2-yl)pyrrolidine-1-carbonyl)benzamide, reference compound] | < 250 | < 500 | < 1000 | > 700 | 717 | > 1000 |
| Cc1coc([C@H]2CCCN2C(=O)c2cccc(C(=O)N[C@@H](Cc3ccccc3)[C@H](O)CNCc3cncc(C(C)(C)C)c3)c2)n1 [2-4, N-((2S,3R)-4-((5-tert-butylpyridin-3-yl)methylamino)-3-hydroxy-1-phenylbutan-2-yl)-3-((R)-2-(4-methyloxazol-2-yl)pyrrolidine-1-carbonyl)benzamide, reference compound] | < 250 | < 500 | < 1000 | > 700 |  |  |
| CCn1cc(CNC[C@@H](O)[C@H](Cc2ccccc2)NC(=O)c2cc(C)cc(C(=O)N3CCC[C@@H]3c3nc(C)co3)c2)cn1 [2-5, N-((2S,3R)-4-((1-ethyl-1H-pyrazol-4-yl)methylamino)-3-hydroxy-1-phenylbutan-2-yl)-3-methyl-5-((R)-2-(4-methyloxazol-2-yl)pyrrolidine-1-carbonyl)benzamide, reference compound] | < 250 | < 500 | 1000 to 5000 | > 700 |  |  |
| Cc1coc([C@H]2CCCN2C(=O)c2cc(CF)cc(C(=O)N[C@@H](Cc3ccccc3)[C@H](O)CNCc3cccc(C(C)(C)C)c3)c2)n1 [2-7, N-((2S,3R)-4-(3-tert-butylbenzylamino)-3-hydroxy-1-phenylbutan-2-yl)-3-(fluoromethyl)-5-((R)-2-(4-methyloxazol-2-yl)pyrrolidine-1-carbonyl)benzamide, reference compound] | < 250 | < 500 | 1000 to 5000 | > 700 |  |  |

The remaining lines, values ahead:

| Ki (memapsin 2 [1]) [nM] | IC50 (memapsin 2 [2]) [nM] | Ki (CYP3A4; read-out: CYP 3A4Ki) [nM] | CLint scaled at 200 μM [3, 4] [mL/min/kg] | Ki (CYP3A4) [nM] | CLint scaled at 200 μM ([3]; read-out: hepatic intrinsic clearance in liver microsomes (HLMCL)) [mL/min/kg] | SMILES |
| --- | --- | --- | --- | --- | --- | --- |
| < 250 | > 1000 | 5000 to 10000 | < 400 |  |  | Cc1csc([C@H]2CCCN2C(=O)c2cc(F)cc(C(=O)N[C@@H](Cc3ccccc3)[C@H](O)[C@H]3CCCN3)c2)n1 [1-32, 3-fluoro-N-((1R,2S)-1-hydroxy-3-phenyl-1-((R)-pyrrolidin-2-yl)propan-2-yl)-5-((R)-2-(4-methylthiazol-2-yl)pyrrolidine-1-carbonyl)benzamide] |
| < 250 | 500 to 1000 | 5000 to 10000 | < 400 |  |  | Cc1csc([C@H]2CCCN2C(=O)c2cccc(C(=O)N[C@@H](Cc3ccccc3)[C@H](O)[C@H]3CCCN3)c2)n1 [1-40, N-((1R,2S)-1-hydroxy-3-phenyl-1-((R)-pyrrolidin-2-yl)propan-2-yl)-3-((R)-2-(4-methylthiazol-2-yl)pyrrolidine-1-carbonyl)benzamide] |
